The text below walks through data of ChEMBL document CHEMBL5506010, “Butyrylcholinesterase-Activated Near-Infrared Fluorogenic Probe for In Vivo Theranostics of Alzheimer's Disease” (J Med Chem, 2024).

The target in series [1] is Cholinesterase (Equus caballus, UniProt P81908). The experiment in a line: Stability of compound assessed as horse serum BChE-mediated compound hydrolysis by fluorescence based analysis. The class given is ADME.
The target of series [2] is T1, Acetylcholinesterase (Homo sapiens, UniProt P22303). As to the kind of experiment: Stability of compound assessed as human serum AChE-mediated compound hydrolysis by fluorescence based analysis. The class given is ADME.
T1 sequence (P22303 whole entry): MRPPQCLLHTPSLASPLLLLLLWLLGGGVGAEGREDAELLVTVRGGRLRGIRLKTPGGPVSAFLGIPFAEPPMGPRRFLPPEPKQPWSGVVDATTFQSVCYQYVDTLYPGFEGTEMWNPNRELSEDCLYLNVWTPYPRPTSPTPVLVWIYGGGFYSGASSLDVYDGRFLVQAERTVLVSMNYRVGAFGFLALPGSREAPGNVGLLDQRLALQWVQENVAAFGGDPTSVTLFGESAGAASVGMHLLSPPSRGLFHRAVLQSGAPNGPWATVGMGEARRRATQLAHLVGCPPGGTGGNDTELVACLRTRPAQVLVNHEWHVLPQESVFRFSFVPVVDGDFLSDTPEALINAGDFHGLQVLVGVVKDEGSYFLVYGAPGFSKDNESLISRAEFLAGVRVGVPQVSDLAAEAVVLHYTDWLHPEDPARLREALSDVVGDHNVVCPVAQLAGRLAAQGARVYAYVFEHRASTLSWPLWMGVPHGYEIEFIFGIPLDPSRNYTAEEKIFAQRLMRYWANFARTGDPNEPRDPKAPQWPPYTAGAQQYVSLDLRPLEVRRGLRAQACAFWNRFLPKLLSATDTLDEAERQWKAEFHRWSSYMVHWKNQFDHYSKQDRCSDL
Series [3] can be described thus: Neurotoxicity in mouse HT-22 cells assessed as reduction in cell viability at 50 uM. The class given is toxicity, cell-based. The note with it: ht-22, 50 µM.
For series [4], the target named is T2, Cholinesterase (Homo sapiens, UniProt P06276). The experiment in a line: Inhibition of human BChE using butyrylthiocholineiodide as substrate preincubated for 5 mins followed by substrate addition and measured immediately by Ellmans method.
T2 sequence (P06276 whole entry): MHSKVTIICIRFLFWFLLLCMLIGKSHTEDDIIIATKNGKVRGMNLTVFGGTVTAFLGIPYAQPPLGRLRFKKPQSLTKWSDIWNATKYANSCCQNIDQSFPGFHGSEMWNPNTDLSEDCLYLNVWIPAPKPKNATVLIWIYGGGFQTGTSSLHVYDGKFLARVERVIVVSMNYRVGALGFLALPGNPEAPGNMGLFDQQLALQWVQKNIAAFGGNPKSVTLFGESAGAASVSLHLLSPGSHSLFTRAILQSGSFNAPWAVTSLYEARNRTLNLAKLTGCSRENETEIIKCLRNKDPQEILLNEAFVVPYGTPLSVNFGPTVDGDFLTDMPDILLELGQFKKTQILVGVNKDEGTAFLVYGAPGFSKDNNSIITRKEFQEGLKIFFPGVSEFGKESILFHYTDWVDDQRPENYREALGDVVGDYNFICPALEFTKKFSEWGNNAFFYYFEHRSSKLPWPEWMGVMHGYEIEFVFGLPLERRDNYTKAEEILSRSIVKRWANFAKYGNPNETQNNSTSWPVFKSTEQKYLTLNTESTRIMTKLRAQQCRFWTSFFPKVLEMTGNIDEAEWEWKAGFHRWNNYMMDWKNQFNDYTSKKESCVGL
Series [5] deals with Mus musculus. As to the kind of experiment: Antialzheimer activity in APP/PS1 transgenic AD mouse model assessed as improvement in memory administered intravenously once every 2 days for 10 times followed by morris water maze training from day 21 to 25 and measured on day 26 by Morris water maze test. Type of series: functional, organism-based. Conditions: route iv, time 26.0 day.

In series [6] the target is T2, Cholinesterase. The experiment in a line: Binding affinity to BChE (unknown origin) in PBS assessed as Michaelis-menten constant by fluorometric method.
The nature of series [7]: Stability of compound in male ICR mouse brain at 100 uM, iv measured within 5 mins by fluorescence microplate reader. The class given is ADME, organism-based.
The nature of series [8]: Permeability of compound incubated for 18 hrs by PAMPA-BBB based UV plate spectroscopic reader analysis. Type of series: ADME. The note with it: read-out: permeability.
Series [9] deals with SH-SY5Y. As to the kind of experiment: Neuroprotective activity against amyloid-beta (1 to 42)-induced human SH-SY5Y cells assessed as decrease in amyloid beta (1 to 42) level in culture medium at 10 to 20 uM incubated for 24 hrs by ELISA. Conditions: dose 10-20 µM. The class given is functional, cell-based.
Series [10] deals with Mus musculus. As to the kind of experiment: Antialzheimer activity in APP/PS1 transgenic AD mouse model assessed as improvement in learning administered intravenously once every 2 days for 10 times followed by morris water maze training from day 21 to 25 and measured on day 26 by Morris water maze test. The class given is functional, organism-based. The note with it: route iv, time 26.0 day.

Series [11] deals with T2, Cholinesterase. As to the kind of experiment: Binding affinity to BChE (unknown origin) assessed as enzyme mediated compound hydrolysis measured after 1 min by HPLC analysis relative to control. Further details: scale not given: the % may be the effect or the level left.
Series [12] addresses Cholinesterase (Mus musculus) (UniProt Q03311). As to the kind of experiment: Binding affinity to BChE in mouse HT-22 cells at 10 uM incubated for 1 hrs by fluorescence based confocal laser scanning microscopic analysis. Type of series: cell-based.
Series [13] deals with T1, Acetylcholinesterase. As to the kind of experiment: Binding affinity to AChE (unknown origin) by fluorescence analysis.
Series [14] can be described thus: Toxicity in APP/PS1 transgenic AD mouse model assessed as effect on body weight administered intravenously once every 2 days for 10 times and measured on day 30. Conditions: in vivo, iv, 720 h, time 30 day.
Series [15] relates to SH-SY5Y. As to the kind of experiment: Neuroprotective activity against amyloid-beta (1 to 42)-induced human SH-SY5Y cells assessed as increase in ACh level in cell lysate at 10 to 20 uM incubated for 24 hrs by ELISA. Type of series: functional, cell-based. Conditions: dose 10-20 µM. (In general: An ELISA detects its analyte on a solid surface through an enzyme-linked reagent.)

Series [16] relates to SH-SY5Y. The experiment in a line: Neuroprotective activity against amyloid-beta (1 to 42)-induced human SH-SY5Y cells assessed as decrease in amyloid beta (1 to 42) level in cell lysate at 10 to 20 uM incubated for 24 hrs by ELISA. Type of series: functional, cell-based. The note with it: dose 10-20 µM.
The subject of series [17] is Mus musculus. The experiment in a line: Antialzheimer activity in APP/PS1 transgenic AD mouse model assessed as decrease in amyloid beta (1 to 42) level administered intravenously once every 2 days for 10 times and measured on day 30 by ELISA. The class given is functional, organism-based. The note with it: route iv, time 30.0 day.
The nature of series [18]: Stability of compound at pH 12 measured within 3 mins by microplate reader analysis. Type of series: physicochemical. Conditions: buffer, pH 12, 0.05 h.
In series [19] the target is T2, Cholinesterase. As to the kind of experiment: Binding affinity to BChE (unknown origin) assessed as enzyme mediated compound hydrolysis measured after 5 min by HPLC analysis relative to control. Further details: scale not given: the % may be the effect or the level left.
The species entered for series [20] is Homo sapiens. The experiment in a line: Binding affinity to ALP (unknown origin) by fluorescence analysis.
Series [21] has as its system PC-12. As to the kind of experiment: Binding affinity to BChE in rat PC-12 cells at 10 uM incubated for 1 hrs by fluorescence based confocal laser scanning microscopic analysis. Type of series: cell-based.
Series [22] has as its system SH-SY5Y. The experiment in a line: Neuroprotective activity against amyloid-beta (1 to 42)-induced human SH-SY5Y cells assessed as increase in ACh level in culture medium at 10 to 20 uM incubated for 24 hrs by ELISA. The class given is functional, cell-based. Conditions: dose 10-20 µM.
The nature of series [23]: Stability of compound in male ICR mouse plasma at 100 uM, iv measured after 30 mins by fluorescence microplate reader. The note with it: 0.5 h. The class given is ADME, organism-based.
Series [24] is described as follows: Drug uptake in HEK293T cells transfected with BChE siRNA assessed as increase in fluorescence intensity by fluorescence based confocal laser scanning microscopic analysis. Type of series: ADME, cell-based. Conditions: human, hek-293t.
Series [25] concerns PC-12. The experiment in a line: Binding affinity to BChE in rat PC-12 cells assessed as increase in fluorescence intensity at 10 uM incubated for 24 hrs by fluorescence based confocal laser scanning microscopic analysis. The class given is cell-based.
The target of series [26] is T2, Cholinesterase. The experiment in a line: Binding affinity to BChE (unknown origin) in PBS assessed as maximum initial reaction rate by fluorometric method.
Series [27] addresses T2, Cholinesterase. The experiment in a line: Binding affinity to BChE in human LN-229 cells at 10 uM incubated for 1 hrs by fluorescence based confocal laser scanning microscopic analysis. The class given is cell-based.
The subject of series [28] is PC-12. The experiment in a line: Binding affinity to BChE in rat PC-12 cells assessed as increase in fluorescence intensity incubated for 1 hrs by fluorescence based confocal laser scanning microscopic analysis. The note with it: dose 1-10 µM. The class given is cell-based.
Series [29] concerns Mus musculus. As to the kind of experiment: Antialzheimer activity in APP/PS1 transgenic AD mouse model assessed as improvement in learning administered intravenously once every 2 days for 10 times and measured on day 26 by Y maze test. The class given is functional, organism-based. Conditions: route iv, time 26.0 day.
The target of series [30] is T2, Cholinesterase. As to the kind of experiment: Binding affinity to BChE (unknown origin) in PBS assessed as […] at 680 nm by UV/vis absorption analysis.
The species entered for series [31] is Homo sapiens. As to the kind of experiment: Binding affinity to carboxylesterase (unknown origin) by fluorescence analysis.
The nature of series [32]: Stability of compound in male ICR mouse brain at 100 uM, iv measured after 30 to 1440 mins by fluorescence microplate reader. Type of series: ADME, organism-based. Conditions: time 30-1440 min.
The test system of series [33] is SH-SY5Y. As to the kind of experiment: Neuroprotective activity against amyloid-beta (1 to 42)-induced cell death in human SH-SY5Y cells assessed as increase in cell survival at 10 to 50 uM preincubated with compound for 2 hrs followed by amyloid beta (1 to 42) addition and measured after 24 hrs by MTT assay. The class given is functional, cell-based. Conditions: dose 10-50 µM, time 26.0 hrs. (Tetrazolium dyes change colour on reduction, which living cells bring about.)

The subject of series [34] is Mus musculus. The experiment in a line: Antialzheimer activity in APP/PS1 transgenic AD mouse model assessed as increase in ACh level administered intravenously once every 2 days for 10 times and measured on day 30 by ELISA. Conditions: route iv, time 30.0 day. Type of series: functional, organism-based.
Series [35] is described as follows: Selectivity ratio of fluorescence intensity for binding affinity to AChE (unknown origin) in PBS to fluorescence intensity for binding affinity to BChE (unknown origin) in PBS.
A short description of series [36]: Drug accumulation in brain of APP/PS1 transgenic AD-mouse model at 100 uM, iv measured at 5 to 60 mins by fluorescence imaging analysis. The note with it: in vivo, time 5-60 min. The class given is ADME, organism-based.
Series [37] deals with T2, Cholinesterase. As to the kind of experiment: Binding affinity to BChE in human SH-SY5Y cells at 10 uM incubated for 1 hrs by fluorescence based confocal laser scanning microscopic analysis. The class given is cell-based.
The species named for series [38] is Homo sapiens. The experiment in a line: Binding affinity to lysozyme (unknown origin) by fluorescence analysis.
The target of series [39] is T2, Cholinesterase. As to the kind of experiment: Binding affinity to BChE (unknown origin) in PBS assessed as maximum emission wavelength at 710 nm by fluorescence spectra analysis.
The target of series [40] is T2, Cholinesterase. As to the kind of experiment: Binding affinity to BChE (unknown origin) in PBS assessed as fold change in fluorescence intensity at 710 nm by fluorescence spectra analysis.
The nature of series [41]: Drug accumulation in brain of APP/PS1 transgenic AD-mouse model at 100 uM, iv measured after 24 hrs […] by fluorescence imaging analysis. The class given is ADME, organism-based. Conditions: in vivo.
For series [42], the target named is T2, Cholinesterase. The experiment in a line: Stability of compound assessed as BChE(unknown origin)-mediated compound hydrolysis at 10 uM by fluorescence based analysis. The class given is ADME.
The target in series [43] is T2, Cholinesterase. The experiment in a line: Binding affinity to BChE (unknown origin) in PBS assessed as cyan coloured appearance of compound by UV/vis absorption analysis.
Series [44] deals with T2, Cholinesterase. As to the kind of experiment: Binding affinity to BChE (unknown origin) in PBS assessed as red-shift in maximum absorption to 680 nm by UV/vis absorption analysis.
Series [45] concerns Mus musculus. As to the kind of experiment: Antialzheimer activity in APP/PS1 transgenic AD mouse model assessed as improvement in NC scores administered intravenously once every 2 days for 10 times and measured on day 27 by Nest construction test. The note with it: route iv, time 27.0 day. Type of series: functional, organism-based.

SMILES strings stand for the structures. Activity calls are given as the source filed them. No cut-off for these calls is given here.

Chain of Cholinesterase (Mus musculus) (Q03311 whole entry): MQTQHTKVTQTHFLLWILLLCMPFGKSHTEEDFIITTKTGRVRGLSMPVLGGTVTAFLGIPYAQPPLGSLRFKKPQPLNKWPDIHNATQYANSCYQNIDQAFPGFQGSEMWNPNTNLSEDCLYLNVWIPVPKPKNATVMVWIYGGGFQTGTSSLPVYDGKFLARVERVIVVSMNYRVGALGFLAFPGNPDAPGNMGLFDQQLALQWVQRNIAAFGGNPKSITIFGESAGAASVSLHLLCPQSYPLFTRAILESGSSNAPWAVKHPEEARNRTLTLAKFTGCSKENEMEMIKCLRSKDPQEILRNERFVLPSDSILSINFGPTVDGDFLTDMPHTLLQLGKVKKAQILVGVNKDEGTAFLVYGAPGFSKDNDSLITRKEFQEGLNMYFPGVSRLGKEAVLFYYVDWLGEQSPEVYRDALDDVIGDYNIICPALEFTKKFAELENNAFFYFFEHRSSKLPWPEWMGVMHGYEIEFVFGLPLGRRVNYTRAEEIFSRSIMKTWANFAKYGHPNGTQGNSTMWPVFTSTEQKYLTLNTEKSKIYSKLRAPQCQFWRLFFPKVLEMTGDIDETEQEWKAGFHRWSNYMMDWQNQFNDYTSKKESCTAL
Chain of Cholinesterase (Equus caballus, UniProt P81908) (P81908 whole entry): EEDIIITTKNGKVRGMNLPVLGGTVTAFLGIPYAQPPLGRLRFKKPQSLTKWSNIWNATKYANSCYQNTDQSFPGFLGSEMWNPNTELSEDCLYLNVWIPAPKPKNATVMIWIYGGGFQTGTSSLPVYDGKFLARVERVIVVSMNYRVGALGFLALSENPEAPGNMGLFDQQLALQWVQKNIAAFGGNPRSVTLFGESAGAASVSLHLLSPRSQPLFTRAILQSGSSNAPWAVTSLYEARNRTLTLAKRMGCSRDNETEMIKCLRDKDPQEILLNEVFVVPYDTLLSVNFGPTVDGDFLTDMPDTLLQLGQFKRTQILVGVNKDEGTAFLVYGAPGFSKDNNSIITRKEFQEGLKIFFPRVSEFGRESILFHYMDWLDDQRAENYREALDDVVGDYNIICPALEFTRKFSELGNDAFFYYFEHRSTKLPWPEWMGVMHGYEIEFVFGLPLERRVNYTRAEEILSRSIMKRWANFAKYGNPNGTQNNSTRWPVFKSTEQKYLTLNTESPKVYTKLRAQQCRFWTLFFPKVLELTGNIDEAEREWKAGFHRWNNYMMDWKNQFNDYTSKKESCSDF

On to `C#CCCC[N+]1=C(/C=C/C2=C3Oc4cc(OC(C)=O)ccc4C=C3CCC2)C(C)(C)c2ccccc21.[I-]`, for which the Stability entry at Cholinesterase [1] and at Acetylcholinesterase [2] was “Unstable” in each case.
`CCN(CC)Cc1ccccc1CNC(=O)c1cccc(NC(=O)c2ccc(F)cc2)c1`: the Activity entry in series [3] was “Non-Toxic”.
For orientation: IC50 means the concentration at which inhibition is half-maximal. In turn, `CCN(CC)Cc1ccccc1CNC(=O)c1cccc(NC(=O)c2cccc(C(=O)O)c2)c1` returned an IC50 on Cholinesterase [4] of 1.23 nM.
`C#CCCC[N+]1=C(/C=C/C2=C3Oc4cc(OC(=O)C5CC5)ccc4C=C3CCC2)C(C)(C)c2ccccc21.[I-]`: the outcome with Mus musculus [5], in the series on SH-SY5Y [9], in the series with Mus musculus [10], at Acetylcholinesterase [13], with SH-SY5Y [15] and with SH-SY5Y [16] was inactive. In addition, the result in the series with Mus musculus [17], in the series filed under Homo sapiens [20], with SH-SY5Y [22], in the series with Mus musculus [29], in the series filed under Homo sapiens [31] and in the series on SH-SY5Y [33] was inactive. For the same compound, the outcome in the series with Mus musculus [34], in the series filed under Homo sapiens [38] and in the series with Mus musculus [45] was inactive. The Activity is 9.07 µM on Cholinesterase [6]; 50% at Cholinesterase [11]; “Non-Toxic” in series [14]; above 90% on Cholinesterase [19]; 2.08 µM/min on Cholinesterase [26]; “Dose-Dependent Effect” with PC-12 [28]. Further, the Activity entry in series [3] was “Toxic”. Also, the Stability entry in series [7] was “Stable”; in series [18], “Unstable”; in [23], “Stable”; in [32], “Unstable”; on Cholinesterase [42], “Stable”. The Papp at 18 h in series [8] was determined as 5.97 ×10⁻⁶ cm/s. For the same compound, the outcome (in [12]; with PC-12 [21]; in the series on PC-12 [25]; on Cholinesterase [27]; on Cholinesterase [30]; at Cholinesterase [37]) was Active. Further, the result on Cholinesterase [39], on Cholinesterase [43] and on Cholinesterase [44] was Active. Moreover, the IC50 against Cholinesterase [4] was above 100000 nM. Besides, the Drug uptake result is “Not Active” in series [24], “Active” in series [36] and “Not Active” in series [41]. In series [35], the Selectivity ratio was found to be 31.4. On Cholinesterase [40], the fold change (FC) is 21.
Turning to `Nc1c2c(nc3ccccc13)CCCC2` [TACRINE], the Activity result in [3] is listed as “Non-Toxic”.
